Common to all, as to assay: Bacterial growth minimal inhibitory concentration, microdilution in cation-adjusted Mueller-Hinton Broth (CLSI M7-A7)
Common to all, as to format: cell-based

One assay concerns E. coli ATCC25922. The conditions noted are these: for MIC: Escherichia coli. How it is done: (§1) Minimal Inhibitory Concentrations (MICs; mg/L) were determined in cation-adjusted Mueller-Hinton Broth by a microdilution method following the description given in “Methods for Dilution Antimicrobial Susceptibility Tests for Bacteria that Grow Aerobically”, Approved standard, 7th ed., Clinical and Laboratory Standards Institute (CLSI) Document M7-A7, Wayne, Pa., USA (2006).
(§2) All Example compounds were tested against several Gram-positive and Gram-negative bacteria. […] K pneumoniae A-651 is a multiply-resistant (in particular quinolone-resistant) strain, while E. coli ATCC25922 and P. aeruginosa ATCC27853 are quinolone-sensitive strains.

In another assay the test system is K. Pneumoniae A-651. The conditions noted are these: for MIC: Klebsiella pneumoniae, read-out: MIC for K. Pneumoniae A-651. How it is done:
as §1, §2

For the next assay, the system named is P. aeruginosa ATCC27853. The conditions noted are these: for MIC: Pseudomonas aeruginosa. How it is done: as §1, §2
[1] abbreviates: ATCC25922, quinolone-sensitive strain, read-out: MIC for E. coli ATCC25922.
The mark [2] stands for this setting: multiply-resistant (in particular quinolone-resistant) strain.
Setting [3] is: ATCC27853, quinolone-sensitive strain, read-out: MIC for P. aeruginosa ATCC27853.

The term MIC denotes the smallest concentration in the dilution series that meets the test's criterion for growth inhibition.

≈ marks a conversion by molar mass, not a printed value. Where a name gives a salt, the structure may show the parent alone. Read-outs that look alike come from different tables or passages of the source.

Regarding `C[C@@](CCc1nc2ccc(C#CC#CC3(N)CC3)cc2s1)(C(=O)NO)S(C)(=O)=O` [Example 10, (R)-4-(6-((1-aminocyclopropyl)buta-1,3-diyn-1-yl)benzo[d]thiazol-2-yl)-N-hydroxy-2-methyl-2-(methylsulfonyl)butanamide hydrochloride], the MIC in the assay on E. coli ATCC25922 (ATCC25922, read-out: MIC for E. coli ATCC25922) was determined as 0.125 mg/L; in the assay with K. Pneumoniae A-651 it was 0.25 mg/L; in the assay on P. aeruginosa ATCC27853 (ATCC27853, read-out: MIC for P. aeruginosa ATCC27853), 1 mg/L.
As for `CC(CCc1nc2ccc(C#CC#CCO)cc2s1)(C(=O)NO)S(C)(=O)=O` (racemic) [RE4, (RS)-N-hydroxy-4-(6-(5-hydroxypenta-1,3-diyn-1-yl)benzo[d]thiazol-2-yl)-2-methyl-2-(methylsulfonyl)butanamide], the MIC with E. coli ATCC25922 (setting [1]) came out at 0.5 mg/L (≈ 1.23 µM); with K. Pneumoniae A-651 (setting [2]), 8 mg/L (≈ 19.7 µM); in the assay with P. aeruginosa ATCC27853 (setting [3]), 1 mg/L (≈ 2.46 µM).
With `C[C@@](CCc1nc2ccc(C#CC#CC3(N)COC3)cc2s1)(C(=O)NO)S(C)(=O)=O` [Example 9, (R)-4-(6-((3-aminooxetan-3-yl)buta-1,3-diyn-1-yl)benzo[d]thiazol-2-yl)-N-hydroxy-2-methyl-2-(methylsulfonyl)butanamide], the results for the MIC with E. coli ATCC25922 (setting [1]), in the assay with K. Pneumoniae A-651 (setting [2]) and in the assay with P. aeruginosa ATCC27853 (setting [3]) were 1 mg/L (≈ 2.23 µM), 2 mg/L (≈ 4.47 µM) and 2 mg/L (≈ 4.47 µM), respectively.
For the molecule `C[C@@](CCc1nc2ccc(C#CC#C[C@@H]3CC[C@@H](N)CO3)cc2s1)(C(=O)NO)S(C)(=O)=O` [Example 16, (R)-4-(6-(((2S,5R)-5-aminotetrahydro-2H-pyran-2-yl)buta-1,3-diyn-1yl)benzo[d]thiazol-2-yl)-N-hydroxy-2-methyl-2-(methylsulfonyl)butanamide], the results for the MIC with E. coli ATCC25922 (setting [1]), with K. Pneumoniae A-651 (setting [2]) and with P. aeruginosa ATCC27853 (setting [3]) were 4 mg/L (≈ 8.41 µM), 8 mg/L (≈ 16.8 µM) and 4 mg/L (≈ 8.41 µM), respectively.
On to `C[C@@](CCc1nc2ccc(C#Cc3ccc(C4(CO)CC4)cc3)cc2s1)(C(=O)NO)S(C)(=O)=O` [Example 11, (R)-N-hydroxy-4-(6-((4-(1-(hydroxymethyl)cyclopropyl)phenyl)ethynyl)benzo[d]thiazol-2-yl)-2-methyl-2-(methylsulfonyl)butanamide], for which the MIC with E. coli ATCC25922 (setting [1]) was found to be 0.125 mg/L (≈ 0.251 µM); in the assay with K. Pneumoniae A-651 (setting [2]), 0.5 mg/L (≈ 1 µM); in the assay with P. aeruginosa ATCC27853 (setting [3]), 4 mg/L (≈ 8.02 µM).
For `CN(C)CC#CC#Cc1ccc2nc(CC[C@](C)(C(=O)NO)S(C)(=O)=O)sc2c1` [Example 17, (R)-4-(6-(5-(dimethylamino)penta-1,3-diyn-1-yl)benzo[d]thiazol-2-yl)-N-hydroxy-2-methyl-2-(methylsulfonyl)butanamide] the same measures were 0.125 mg/L (≈ 0.288 µM), 0.25 mg/L (≈ 0.577 µM) and 2 mg/L (≈ 4.61 µM).
In the case of `C[C@@](CCc1nc2ccc(C#CC#CC3(CO)CCC3)cc2s1)(C(=O)NO)S(C)(=O)=O` [Example 12, (R)-N-hydroxy-4-(6-((1-(hydroxymethyl)cyclobutyl)buta-1,3-diyn-1-yl)benzo[d]thiazol-2-yl)-2-methyl-2-(methylsulfonyl)butanamide], the MIC with E. coli ATCC25922 (setting [1]) was found to be 0.125 mg/L (≈ 0.271 µM); with K. Pneumoniae A-651 (setting [2]), 0.5 mg/L (≈ 1.09 µM); in the assay on P. aeruginosa ATCC27853 (setting [3]), 2 mg/L (≈ 4.34 µM).
On to `C[C@@](CCc1nc2ccc(C#CC#C[C@H]3C[C@]3(F)CO)cc2s1)(C(=O)NO)S(C)(=O)=O` [Example 27, (R)-4-(6-(((1R,2R)-2-fluoro-2-(hydroxymethyl)cyclopropyl)buta-1,3-diyn-1-yl)benzo[d]thiazol-2-yl)-N-hydroxy-2-methyl-2-(methylsulfonyl)butanamide], for which the MIC was determined as 0.063 mg/L (≈ 0.136 µM) in the assay with E. coli ATCC25922 (setting [1]), 0.125 mg/L (≈ 0.269 µM) with K. Pneumoniae A-651 (setting [2]) and 0.25 mg/L (≈ 0.538 µM) in the assay on P. aeruginosa ATCC27853 (setting [3]).
For `C[C@@](CCc1nc2ccc(C#CC#CC3(CO)COC3)cc2s1)(C(=O)NO)S(C)(=O)=O` [Example 20, (R)-N-hydroxy-4-(6-((3-(hydroxymethyl)oxetan-3-yl)buta-1,3-diyn-1-yl)benzo[d]thiazol-2-yl)-2-methyl-2-(methylsulfonyl)butanamide] the same measures were 0.5 mg/L (≈ 1.08 µM), 0.5 mg/L (≈ 1.08 µM) and 1 mg/L (≈ 2.16 µM).
For `C[C@@]1(C#CC#Cc2ccc3nc(CC[C@](C)(C(=O)NO)S(C)(=O)=O)sc3c2)C[C@H]1CO` [Example 15, (R)-N-hydroxy-4-(6-(((1R,2R)-2-(hydroxymethyl)-1-methylcyclopropyl)buta-1,3-diyn-1-yl)benzo[d]thiazol-2-yl)-2-methyl-2-(methylsulfonyl)butanamide] the same measures were 0.125 mg/L (≈ 0.271 µM), 0.5 mg/L (≈ 1.09 µM) and 1 mg/L (≈ 2.17 µM).
On the same counts, the results for `C[C@@](CCc1nc2ccc(C#CC#C[C@H]3C[C@@H]3CO)cc2s1)(C(=O)NO)S(C)(=O)=O` [Example 7, (R)-N-hydroxy-4-(6-(((1S,2S)-2-(hydroxymethyl)cyclopropyl)buta-1,3-diyn-1-yl)benzo[d]thiazol-2-yl)-2-methyl-2-(methylsulfonyl)butanamide] are ≤ 0.063 mg/L, 0.125 mg/L (≈ 0.28 µM) and 0.5 mg/L (≈ 1.12 µM).
On to `CC(CCc1nc2ccc(C#Cc3ccc(CO)cc3)cc2s1)(C(=O)NO)S(C)(=O)=O` (racemic) [RE2, (RS)-N-hydroxy-4-(6-((4-(hydroxymethyl)phenyl)ethynyl)benzo[d]thiazol-2-yl)-2-methyl-2-(methylsulfonyl)butanamide], for which the MIC in the assay with E. coli ATCC25922 (setting [1]) came out at 0.125 mg/L (≈ 0.273 µM); in the assay on K. Pneumoniae A-651 (setting [2]), 0.5 mg/L (≈ 1.09 µM); in the assay on P. aeruginosa ATCC27853 (setting [3]), 16 mg/L (≈ 34.9 µM).
On the same counts, the results for `C[C@@](CCc1nc2ccc(C#CC#CC3CCNCC3)cc2s1)(C(=O)NO)S(C)(=O)=O` [Example 19, (R)-N-hydroxy-2-methyl-2-(methylsulfonyl)-4-(6-(piperidin-4-ylbuta-1,3-diyn-1-yl)benzo[d]thiazol-2-yl)butanamide] are 8 mg/L (≈ 17.4 µM), 16 mg/L (≈ 34.8 µM) and 4 mg/L (≈ 8.7 µM).
For `COc1ccc(-c2ccc3nc(CCC(C)(C(=O)NO)S(C)(=O)=O)sc3c2)cc1` (racemic) [RE1, (RS)-N-hydroxy-4-(6-(4-methoxyphenyl)benzo[d]thiazol-2-yl)-2-methyl-2-(methylsulfonyl)butanamide] the same measures were 0.25 mg/L (≈ 0.575 µM), 2 mg/L (≈ 4.6 µM) and 16 mg/L (≈ 36.8 µM).
On the same counts, the results for `C[C@@](CCc1nc2ccc(C#CC#C[C@@]3(F)C[C@@H]3CO)cc2s1)(C(=O)NO)S(C)(=O)=O` (relative stereo) [Example 23, (R)-4-(6-(((1R*,2R*)-1-fluoro-2-(hydroxymethyl)cyclopropyl)buta-1,3-diyn-1-yl)benzo[d]thiazol-2-yl)-N-hydroxy-2-methyl-2-(methylsulfonyl)butanamide] are ≤ 0.063 mg/L, 0.25 mg/L (≈ 0.538 µM) and 0.5 mg/L (≈ 1.08 µM).
Consider `C[C@@](CCc1nc2ccc(C#CC#CCC3(O)COC3)cc2s1)(C(=O)NO)S(C)(=O)=O` [Example 14, (R)-N-hydroxy-4-(6-(5-(3-hydroxyoxetan-3-yl)penta-1,3-diyn-1-yl)benzo[d]thiazol-2-yl)-2-methyl-2-(methylsulfonyl)butanamide], for which the results for the MIC in the assay on E. coli ATCC25922 (setting [1]), with K. Pneumoniae A-651 (setting [2]) and with P. aeruginosa ATCC27853 (setting [3]) were 0.5 mg/L (≈ 1.08 µM), 1 mg/L (≈ 2.16 µM) and 1 mg/L (≈ 2.16 µM), respectively.
On to `C[C@@](CCc1nc2ccc(C#CC#CC3CCN(C(=O)CO)CC3)cc2s1)(C(=O)NO)S(C)(=O)=O` [Example 22, (R)-N-hydroxy-4-(6-((1-(2-hydroxyacetyl)piperidin-4-yl)buta-1,3-diyn-1-yl)benzo[d]thiazol-2-yl)-2-methyl-2-(methylsulfonyl)butanamide], for which the MIC in the assay on E. coli ATCC25922 (setting [1]) came to 0.5 mg/L (≈ 0.966 µM); in the assay on K. Pneumoniae A-651 (setting [2]) it was 1 mg/L (≈ 1.93 µM); in the assay with P. aeruginosa ATCC27853 (setting [3]), 2 mg/L (≈ 3.86 µM).
Consider `C[C@@](CCc1nc2ccc(C#CC#C[C@]3(O)C[C@@H](CO)C3)cc2s1)(C(=O)NO)S(C)(=O)=O` (relative stereo) [Example 21, (R)-N-hydroxy-4-(6-((cis-1-hydroxy-3-(hydroxymethyl)cyclobutyl)buta-1,3-diyn-1-yl)benzo[d]thiazol-2-yl)-2-methyl-2-(methylsulfonyl)butanamide], for which the “MIC for E. coli ATCC25922” value in the assay with E. coli ATCC25922 (quinolone-sensitive strain) is 1 mg/L. In addition, in the assay with K. Pneumoniae A-651 (setting [2]), the “MIC for K. Pneumoniae A-651” value is on record as 2 mg/L. In the assay on P. aeruginosa ATCC27853 (quinolone-sensitive strain), the “MIC for P. aeruginosa ATCC27853” value came out at 2 mg/L.
In the case of `C[C@]1(CO)C[C@@H]1C#CC#Cc1ccc2nc(CC[C@](C)(C(=O)NO)S(C)(=O)=O)sc2c1` [Example 26, (R)-N-hydroxy-4-(6-(((1R,2S)-2-(hydroxymethyl)-2-methylcyclopropyl)buta-1,3-diyn-1-yl)benzo[d]thiazol-2-yl)-2-methyl-2-(methylsulfonyl)butanamide], the MIC in the assay on E. coli ATCC25922 (setting [1]) worked out at 0.063 mg/L (≈ 0.137 µM); in the assay with K. Pneumoniae A-651 (setting [2]), 0.125 mg/L (≈ 0.271 µM); in the assay with P. aeruginosa ATCC27853 (setting [3]), 0.5 mg/L (≈ 1.09 µM).
For `C[C@@](CCc1nc2ccc(C#CC#C[C@H](O)CO)cc2s1)(C(=O)NO)S(C)(=O)=O` [Example 5, (R)-4-(6-((S)-5,6-dihydroxyhexa-1,3-diyn-1-yl)benzo[d]thiazol-2-yl)-N-hydroxy-2-methyl-2-(methylsulfonyl)butanamide] the same measures were 1 mg/L (≈ 2.29 µM), 8 mg/L (≈ 18.3 µM) and 1 mg/L (≈ 2.29 µM).
With `C[C@@](CCc1nc2ccc(C#CC#C[C@@H]3C[C@@H](O)[C@@H](O)C3)cc2s1)(C(=O)NO)S(C)(=O)=O` [Example 13, (R)-4-(6-(((1s,3R,4S)-3,4-dihydroxycyclopentyl)buta-1,3-diyn-1-yl)benzo[d]thiazol-2-yl)-N-hydroxy-2-methyl-2-(methylsulfonyl)butanamide], the “MIC for E. coli ATCC25922” value in the assay on E. coli ATCC25922 (quinolone-sensitive strain) is 0.25 mg/L. For the same molecule, the “MIC for K. Pneumoniae A-651” value against K. Pneumoniae A-651 (setting [2]) is given as 0.5 mg/L. The “MIC for P. aeruginosa ATCC27853” value in the assay with P. aeruginosa ATCC27853 (quinolone-sensitive strain) is 1 mg/L.
